The values below come from PMC10286336, “Potassium ion channels as a molecular target to reduce virus infection and mortality of honey bee colonies” (Virology Journal, 2023).

One assay relates to Flock House virus (FHV). Also on record: method as in PMID 28819165. To be noted: cited from earlier work.
For another assay, the system named is phenoloxidase (POX). The assay can be described thus: Phenoloxidase activity of treated bees (individual immunity). To be noted: 24- and 72-h exposure. The assay is classed as in vivo, Apis mellifera. The protocol: Individual bees were sampled at 24-h intervals and frozen in liquid nitrogen. Social immunity was measured by quantifying the metabolism of glucose to hydrogen peroxide by glucose oxidase. Briefly, heads were homogenized in ice-cold extraction buffer then centrifuged at 15,000×g. Aliquots of supernatant were incubated with horse radish peroxidase and glucose at 37 °C, then combined with the chromogen o-dianisidine dihydrochloride. Absorbance was read at 430 nm over a period of 90 min and compared to sample blanks, lacking chromogen. To measure individual immunity, phenoloxidase activity was measured as described. Abdomens were homogenized as and centrifuged as previously described. Supernatant was incubated at 37 °C, then combined with the chromogen L-Dopa. Absorbance was measured at 490 nm for 20 min, then compared to sample blanks lacking chromogen. To compare both glucose oxidase and phenol oxidase activity between samples, Vmax was calculated using the Michaelis–Menten equation.

Another assay concerns LSV-2. The assay can be described thus: Field colony study, change in virus titer by qRT-PCR: LSV-2. The assay is classed as in vivo, Lake Sinai virus. To be noted: emerging brood, 2 mM pinacidil, colony level. The method, then: (§1) Nucleus colonies of bees were established as previously described and relocated to a geographically isolated apiary and were grown to full-size colonies and equalized based on population prior to initiation of the study. The bees were maintained in eight-frame Langstroth equipment and kept as single deeps with a medium super with undrawn foundation. […] DWV inoculum was prepared by injecting filter-sterilized homogenate from a DWV-positive symptomatic bee into white-eyed honey bee pupae. 72-h later, an aliquot of pupae was screened for preliminary confirmation of DWV infection and found to contain between 5E9 and 8E9 viral copies of DWV-A per individual. […] A quantity of 15 fully formed adult stage bees were removed from the capped cells and placed into 15 mL conical vials. All samples were stored on dry ice during field collection, then transferred to − 80 °C until virus quantification. Titers of DWV-A, DWV-B, BQCV, IAPV, LSV-1 and LSV-2 were quantified by qRT-PCR using primer sequences described in our previous publications.
Samples were removed from − 80 °C storage and placed in a nuclease-free chilled bead bath (~ 4 °C) to gently thaw. […] RNA concentrations were then quantified for each sample using the NanoDrop 1-C® instrument. […] Library construction was performed using the Quantitect Reverse Transcription kit according to manufacturer instructions (Qiagen, N.V.). […]
In general terms: Quantitative PCR measures a nucleic acid by following its amplification.

Another assay concerns bee dorsal vessel. Also on record: method as in PMID 28412203. To be noted: cited from earlier work.
Another assay relates to DWV-B. Description: Field colony study, change in virus titer by qRT-PCR: DWV-B. The assay is classed as in vivo, Deformed Wing virus. The method, then: as §1, with “individual. Remaining pupae were homogenized in ice-cold PBS, with aliquots retained for qRT-PCR screening of DWV, as well as additional viruses relevant to bee health. Homogenate solutions were diluted in 1:1 sucrose and placed in calibrated spray bottles. A treatment and sampling schedule was constructed based on the 21-day egg-to-adult life history of worker bees (Additional file 1: Fig. S1). Both pinacidil and virus solutions were prepared fresh daily.” for “individual.”
(§2) Samples were removed from − 80 °C storage and placed in a nuclease-free chilled bead bath (~ 4 °C) to gently thaw. […] RNA concentrations were then quantified for each sample using the NanoDrop 1-C® instrument. […] Library construction was performed using the Quantitect Reverse Transcription kit according to manufacturer instructions (Qiagen, N.V.). Template cDNA was then quantified by NanoDrop 1-C® and standardized to 500 ng/uL by addition of nuclease-free H2O.
(§3) To accurately quantify virus infection, it was necessary to first construct a standard curve for each target virus. […]

Another assay concerns bee-relevant viruses. Description: Field colony study, bee-relevant viruses overall. The assay is classed as in vivo, Apis mellifera. The protocol: as §1, with “individual. Remaining pupae were homogenized in ice-cold PBS, with aliquots retained for qRT-PCR screening of DWV, as well as additional viruses relevant to bee health. Homogenate solutions were diluted in 1:1 sucrose and placed in calibrated spray bottles. A treatment and sampling schedule was constructed based on the 21-day egg-to-adult life history of worker bees (Additional file 1: Fig. S1). Both pinacidil and virus solutions were prepared fresh daily.” for “individual.”
as §2, §3

Assay [1] deals with bees inoculated with Israeli acute paralysis virus (IAPV). The assay can be described thus: IAPV-mediated mortality of bees fed KATP modulator or paraquat. The assay is classed as in vivo, Apis mellifera. The method, then:
IAPV was obtained following our previously described methods. Approximately 30 adult bees from a heavily infected IAPV infected colony were froze in liquid nitrogen, ground to a fine powder, and homogenized in a phosphate extraction buffer. The supernatant was collected after centrifuging the emulsion and filtered through a 0.2 micron filter. The filtrate was subsequently centrifuged at 30,000 rpm to pellet the picornavirus particles and was followed by resusopension in PBS and centrifuged at 52,000 rpm overnight. The fractions containing virus particles were dialyzed against cold PBS overnight. Verification that IAPV was the only virus present in the inoculum was performed via qRT-PCR and quantification of IAPV was performed by absolute quantification using standard curve method as previously described.
Bees were immobilized on ice, then injected with PBS alone or containing IAPV and returned to the incubator. […] Quantification of IAPV mRNA among whole bees and excised insect dorsal vessels was performed by qRT-PCR as detailed below.

With `CC(N/C(=N\C#N)Nc1ccncc1)C(C)(C)C` (stereo not drawn) [pinacidil], in the assay on Flock House virus (FHV), the “Effect against FHV infection of bees” value was “protective effect”. Moreover, the POX activity entry with phenoloxidase (POX) is on record as “no statistical differences”. Besides, in the assay with LSV-2, the “Reduction of LSV-2 replication compared to virus inoculation-only colonies” value is recorded as “approximately fivefold”. In addition, the “Dorsal vessel contraction rates” value with bee dorsal vessel is “increases”. In addition, in the assay on DWV-B (emerging brood, 2 mM pinacidil), the “Change of DWV-B titer versus uninoculated colonies” value is listed as “not significantly different”. The “Reduction of change in DWV-B titer compared to virus only inoculated colonies” value in the assay on DWV-B (emerging brood, 2 mM pinacidil, colony level) is reported as “sixfold”. In the assay on DWV-B (nurse/forager bees), the “DWV-B titers, virus only versus pinacidil + virus” value was “not significantly different”. Moreover, the “Reduction of titers of bee-relevant viruses” value in the assay with bee-relevant viruses (colonies treated with pinacidil in the field) was “up to 75 fold”. In addition, the “Viral replication in nurse bees” value with bee-relevant viruses (field study) is “did not reduce viral replication”. In addition, the “Viral replication in emerging bees” value with bee-relevant viruses (field study, mature colonies) was “near elimination”. The “Mortality of pinacidil + IAPV versus control treatment” value in assay [1] (24-, 72-, or 96-h post-inoculation) is listed as “No significant difference”. Further, the “Reduction in mortality compared to control bees” value in assay [1] (pinacidil + IAPV, 48 and 120 h) worked out at 25%.
